Source: patent publication US11098061B2 (Celgene CAR LLC, priority 2013, dated 2021)

What was measured:
[1] = target: p38a activated, mitogen-activated protein kinase-activated protein kinase 2 (MAPKAP-K2 or MK-2) enzyme (Homo sapiens (Human), UniProt P49137); assay: MK2 Omnia continuous-read kinase assay for compound potency; assay type: biochemical; conditions: [MK-2]=0.4 nM, [ATP]=1.0 mM, [ST3-Sox]=10 μM
In short: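 Continuous Omnia fluorescence read (λex360/λem485) every 71 s after starting with 0.4 nM MK-2, with 1.0 mM ATP (appKM 8-10 μM) and 10 μM ST3-Sox substrate.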

[2] = target: T1, MK2 (Homo sapiens (Human), UniProt P49137); assay: MK2 cellular assay (Hsp27 phosphorylation in Thp-1 cells); assay type: cell-based; conditions: differentiated Thp-1 cells, compound 1 hour, 50 ng/ml LPS 15 minutes, phosphorylation of Hsp27; read-out: MK2EC50
T1 sequence (P49137 whole entry): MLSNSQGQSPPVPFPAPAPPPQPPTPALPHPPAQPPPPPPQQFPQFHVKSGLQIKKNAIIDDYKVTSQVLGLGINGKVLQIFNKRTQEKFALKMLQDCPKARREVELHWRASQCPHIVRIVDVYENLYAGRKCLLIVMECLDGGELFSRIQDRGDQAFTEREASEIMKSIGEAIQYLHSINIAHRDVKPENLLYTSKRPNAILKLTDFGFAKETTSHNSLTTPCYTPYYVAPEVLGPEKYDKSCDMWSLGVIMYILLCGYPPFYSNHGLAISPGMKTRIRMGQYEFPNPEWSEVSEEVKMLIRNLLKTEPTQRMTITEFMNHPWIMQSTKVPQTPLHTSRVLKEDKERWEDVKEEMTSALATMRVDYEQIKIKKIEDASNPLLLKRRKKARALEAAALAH
Method: Compounds were assayed in Thp-1 human acute monocytic leukemia cells to measure inhibition of MK2 activity. Thp-1 were grown in suspension in T225 flasks. Two days prior to assay, Thp-1 cells were spun down, counted and plated at 1×10^6 cells per well of a 12 well plate in complete media containing 10 ng/ml PMA (phorbol myristate acetate) to differentiate the cells. On day of assay, cells were washed with complete media, and compound was added to differentiated Thp-1 cells for 1 hour. Cells were washed again, and complete media containing 50 ng/ml LPS (lipopolysaccharide) was added. After 15 minutes, cells were washed once with PBS and lysed on ice with BioRad Bioplex lysis buffer. 20 μg total protein from lysates were loaded on gel and blots were probed for phosphorylation of the MK2 substrate Hsp27. Dose response inhibition of MK2 signaling in differentiated Thp-1 cells was used to determine the EC50 for compounds reported in Table A in the column entitled “MK2 EC50.”

[3] = target: T1, MK2; assay: MK2 modification assessment by whole protein mass spectrometry; assay type: binding; conditions: intact MK2, 60 min, 10-fold excess of compound to protein
In short: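 MK2 treated with compound is analysed intact by MALDI-TOF after C4 cleanup in sinapinic acid matrix. Percent modification is the centroid mass shift against control MK2 divided by compound mass.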

Chain of p38a activated, mitogen-activated protein kinase-activated protein kinase 2 (MAPKAP-K2 or MK-2) enzyme (P49137 whole entry): as above

Row | Compound | IC50 [1] [µM] | EC50 [2] [µM] | MK2 Mass Mod [3]
1 | C=CC(=O)Nc1cc(-c2cc3c(ccc4c5c([nH]c43)CCC5=O)cn2)ccc1N1CCN(C)CC1 [II-e-4, N-(2-(4-methylpiperazin-1-yl)-5-(7-oxo-7,8,9,10-tetrahydrocyclopenta[4,5]pyrrolo[2,3-f]isoquinolin-2-yl)phenyl)acrylamide] | < 0.1 | < 0.1 | E (mass modification of ≥70%)
2 | C=CC(=O)N1CCOc2ccc(-c3cc4c(ccc5c6c([nH]c54)CCC6=O)cn3)cc21 [II-e-8, 2-(4-acryloyl-3,4-dihydro-2H-benzo[b][1,4]oxazin-6-yl)-8,9-dihydrocyclopenta[4,5]pyrrolo[2,3-f]isoquinolin-7(10H)-one] | < 0.1 | > 1 | E (mass modification of ≥70%)
3 | C=CC(=O)Nc1cc(-c2cc3c(ccc4c5c(n(C)c43)CCC5=O)cn2)ccc1N1CCN(C)CC1 [II-e-15, N-(5-(10-methyl-7-oxo-7,8,9,10-tetrahydrocyclopenta[4,5]pyrrolo[2,3-f]isoquinolin-2-yl)-2-(4-methylpiperazin-1-yl)phenyl)acrylamide] | < 0.1 | 0.101 to 0.5 | E (mass modification of ≥70%)
4 | C=CC(=O)N1CC(C)Oc2ccc(-c3cc4c(ccc5c6c([nH]c54)CCC6=O)cn3)cc21 (stereo not drawn) [II-e-17, 2-(4-acryloyl-2-methyl-3,4-dihydro-2H-benzo[b][1,4]oxazin-6-yl)-8,9-dihydrocyclopenta[4,5]pyrrolo[2,3-f]isoquinolin-7(10H)-one] | < 0.1 | 0.501 to 0.999 | E (mass modification of ≥70%)
5 | C=CC(=O)Nc1cc(-c2cc3c(ccc4c5c([nH]c43)CCC5=O)cn2)ccc1Cl [II-e-20, N-(2-chloro-5-(7-oxo-7,8,9,10-tetrahydrocyclopenta[4,5]pyrrolo[2,3-f]isoquinolin-2-yl)phenyl)acrylamide] | < 0.1 | 0.101 to 0.5 | E (mass modification of ≥70%)
6 | C=CC(=O)Nc1cc(-c2cc3c(ccc4c5c(n(C)c43)CCC5=O)cn2)cnc1OC [II-e-21, N-(2-methoxy-5-(10-methyl-7-oxo-7,8,9,10-tetrahydrocyclopenta[4,5]pyrrolo[2,3-f]isoquinolin-2-yl)pyridin-3-yl)acrylamide] | 0.501 to 0.999 | > 1 | E (mass modification of ≥70%)
7 | C=CC(=O)Nc1cc(-c2cc3c(ccc4c5c([nH]c43)CCC5=O)cn2)ccc1N1CCN(C(C)=O)CC1 [II-e-23, N-(2-(4-acetylpiperazin-1-yl)-5-(7-oxo-7,8,9,10-tetrahydrocyclopenta[4,5]pyrrolo[2,3-f]isoquinolin-2-yl)phenyl)acrylamide] | < 0.1 | 0.501 to 0.999 | E (mass modification of ≥70%)

The next lines start with the values.

Row | IC50 [1] [µM] | EC50 [2] [µM] | MK2 Mass Mod [3] | Compound
8 | < 0.1 | < 0.1 | F (mass modification of 31-69%) | C=CC(=O)Nc1cc(-c2cc3c(cn2)CCc2c-3[nH]c3c2C(=O)NCC3)ccc1F [II-3, N-(2-fluoro-5-(7-oxo-6,7,8,9,10,11-hexahydro-5H-pyrido[3′,4′:4,5]pyrrolo[2,3-f]isoquinolin-2-yl)phenyl)acrylamide]
9 | < 0.1 | < 0.1 | E (mass modification of ≥70%) | C=CC(=O)Nc1cc(-c2cc3c(cn2)CCc2c-3[nH]c3c2C(=O)NCC3)cnc1OC [II-4, N-(2-methoxy-5-(7-oxo-6,7,8,9,10,11-hexahydro-5H-pyrido[3′,4′:4,5]pyrrolo[2,3-f]isoquinolin-2-yl)pyridin-3-yl)acrylamide]
10 | < 0.1 | < 0.1 | E (mass modification of ≥70%) | C=CC(=O)Nc1cc(-c2cc3c(cn2)CCc2c-3[nH]c3c2C(=O)NC2(CC2)C3)cnc1OC [II-5, N-(2-methoxy-5-(7′-oxo-5′,6′,7′,8′,10′,11′-hexahydrospiro[cyclopropane-1,9′-pyrido[3′,4′:4,5]pyrrolo[2,3-f]isoquinolin]-2′-yl)pyridin-3-yl)acrylamide]
11 | < 0.1 | < 0.1 | E (mass modification of ≥70%) | C=CC(=O)Nc1cc(-c2cc3c(cn2)CCc2c-3[nH]c3c2C(=O)NC2(CC2)C3)ccc1F [II-6, N-(2-fluoro-5-(7′-oxo-5′,6′,7′,8′,10′,11′-hexahydrospiro[cyclopropane-1,9′-pyrido[3′,4′:4,5]pyrrolo[2,3-f]isoquinolin]-2′-yl)phenyl)acrylamide]
12 | < 0.1 | < 0.1 | E (mass modification of ≥70%) | C=CC(=O)Nc1cc(-c2cc3c(cn2)CCc2c-3[nH]c3c2C(=O)NC2(CC2)C3)cnc1OCCOC [II-8, N-(2-(2-methoxyethoxy)-5-(7′-oxo-5′,6′,7′,8′8′,1′,11′-hexahydrospiro[cyclopropane-1,9′-pyrido[3′,4′:4,5]pyrrolo[2,3-f]isoquinolin]-2′-yl)pyridin-3-yl)acrylamide]
13 | < 0.1 | > 1 | E (mass modification of ≥70%) | C=CC(=O)N1CCOc2ncc(-c3cc4c(cn3)CCc3c-4[nH]c4c3C(=O)NC3(CC3)C4)cc21 [II-9, 2′-(1-acryloyl-2,3-dihydro-1H-pyrido[2,3-b][1,4]oxazin-7-yl)-5′,6′,10′,11′-tetrahydrospiro[cyclopropane-1,9′-pyrido[3′,4′:4,5]pyrrolo[2,3-f]isoquinolin]-7′(8′H)-one]
14 | < 0.1 | 0.501 to 0.999 | E (mass modification of ≥70%) | C=CC(=O)Nc1cc(-c2cc3c(cn2)CCc2c-3[nH]c3c2C(=O)NCC3)ccc1OCCCN [II-10, N-(2-(3-aminopropoxy)-5-(7-ox-6,7,8,9,11-hexahydro-5H-pyrido[3′,4′:4,5]pyrrolo[2,3-f]isoquinolin-2-yl)phenyl)acrylamide]
15 | < 0.1 | 0.501 to 0.999 | E (mass modification of ≥70%) | C=CC(=O)N1CCOc2ccc(-c3cc4c(cn3)CCc3c-4[nH]c4c3C(=O)NC3(CC3)C4)cc21 [II-12, 2′-(4-acryloyl-3,4-dihydro-2H-benzo[b][1,4]oxazin-6-yl)-5′,6′,10′,11′-tetrahydrospiro[cyclopropane-1,9′-pyrido[3′,4′:4,5]pyrrolo[2,3-f]isoquinolin]-7′(8′H)-one]
16 | < 0.1 | 0.101 to 0.5 | E (mass modification of ≥70%) | C=CC(=O)Nc1cc(-c2ncc3c(n2)-c2[nH]c4c(c2CC3)C(=O)NCC4)cnc1OCCOC [II-13, N-(2-(2-methoxyethoxy)-5-(7-oxo-6,7,8,9,10,11-hexahydro-5H-pyrido[3′,4′:4,5]pyrrolo[3,2-h]quinazolin-2-yl)pyridin-3-yl)acrylamide]
17 | < 0.1 | < 0.1 | E (mass modification of ≥70%) | C=CC(=O)Nc1cc(-c2ncc3c(n2)-c2[nH]c4c(c2CC3)C(=O)NCC4)ccc1OCCOC [II-15, N-(2-(2-methoxyethoxy)-5-(7-oxo-6,7,8,9,10,11-hexahydro-5H-pyrido[3′,4′:4,5]pyrrolo[3,2-h]quinazolin-2-yl)phenyl)acrylamide]
18 | < 0.1 | < 0.1 | E (mass modification of ≥70%) | C=CC(=O)Nc1cc(-c2cc3c(cn2)CCc2c-3[nH]c3c2C(=O)NCC3)ccc1OCCOC [II-16, N-(2-(2-methoxyethoxy)-5-(7-oxo-6,7,8,9,10,11-hexahydro-5H-pyrido[3′,4′:4,5]pyrrolo[2,3-f]isoquinolin-2-yl)phenyl)acrylamide]
19 | < 0.1 | 0.101 to 0.5 | E (mass modification of ≥70%) | C=CC(=O)Nc1cc(-c2cc3c(cn2)CCc2c-3[nH]c3c2C(=O)NCC3)cnc1N1CCN(C)CC1 [II-26, N-(2-(4-methylpiperazin-1-yl)-5-(7-oxo-6,7,8,9,10,11-hexahydro-SH-pyrido[3′,4′:4,5]pyrrolo[2,3-f]isoquinolin-2-yl)pyridin-3-yl)acrylamide]
20 | < 0.1 | < 0.1 | E (mass modification of ≥70%) | C=CC(=O)Nc1cc(-c2ccc3c(ccc4sc5c(c43)NC[C@@H](C)NC5=O)n2)cnc1C [III-1, (R)—N-(2-methyl-5-(10-methyl-8-oxo-9,10,11,12-tetrahydro-8H-[1,4]diazepino[5′,6′:4,5]thieno[3,2-f]quinolin-3-yl)pyridin-3-yl)acrylamide]
21 | < 0.1 | < 0.1 | E (mass modification of ≥70%) | C=CC(=O)Nc1cc(NC(=O)c2ccc3sc4c(c3c2)NC[C@@H](C)NC4=O)ccc1N1CCCC1 [III-3, (R)—N-(3-acrylamido-4-(pyrrolidin-1-yl)phenyl)-3-methyl-5-oxo-2,3,4,5-tetrahydro-1H-benzo[4,5]thieno[3,2-e][1,4]diazepine-9-carboxamide]
22 | < 0.1 | > 1 | E (mass modification of ≥70%) | C=CC(=O)Nc1cc(NC(=O)c2ccc3sc4c(c3c2)NC[C@@H](C)NC4=O)ccc1N1CCNCC1 [III-5, (R)—N-(3-acrylamido-4-(piperazin-1-yl)phenyl)-3-methyl-5-oxo-2,3,4,5-tetrahydro-1H-benzo[4,5]thieno[3,2-e][1,4]diazepine-9-carboxamide]
